Entries after “also recorded” stand apart in the source; their conditions may differ. Where two headings read alike, the source gives them in different places.
Experiments:
postmenopausal women = assay: Microvascular function by peripheral arterial tonometry (Endo-PAT2000) after intake of 90 mg ResArgin or trans-res; format: in vivo, human; conditions: combined data
platelets [1] = conditions: in vitro; 10-1,000 μM; dose dependent; cited from earlier work
platelets [2] = assay: Platelet function by whole blood/optical lumi-aggregometer after intake; format: in vivo, human
Description: Platelet reactivity during clinical screening was assessed by a PFA-100 (Siemens, Deerfield, Ill.), which measures platelet function by simulating arterial hemostasis under blood flow shear stress. During the intervention, platelet function was assessed by a whole blood/optical lumi-aggregometer (Chrono-log Model 700, Havertown, Pa.). Briefly, platelet aggregation was measured via electrical impedence (or electrical resistance), whereas lumi-aggregometry was used to examine aggregation together with adenosine triphosphate (hereafter, “ATP”) release, which is determined with firefly luciferin-luciferase system. […] One of the following agonists was used to stimulate platelets: collagen (1 μL and 5 μL), AA (10 μL) or ADP (10 μL). ATP release was measured only when platelets were activated with ADP. The aggregation was measured over a period of six minutes, following the addition of an agonist.

platelets [3] = conditions: 10 mg daily for three months; stable coronary artery disease patients; cited from earlier work
[4] = test system: endothelial nitric oxide synthase (eNOS); conditions: 1 μM; human umbilical vein endothelial cells; cited from earlier work
[5] = Plasma resveratrol concentrations after intake (HPLC), one hour study; format: in vivo, human; conditions: median (interquartile range), n=30
Description: Participants were randomized by block design to consumed trans-res or ResArgin™ in random order. Randomization was performed by the study coordinator following a predetermined plan formulated via a web-based random number generator. […] The study included two separate investigations: a one hour study and a two hour study (FIG. 6). During each study visit, which took place after an overnight fast, a baseline measurement of PAT and a blood sample were collected, followed by consumption of the assigned treatment. During the one hour study, PAT measurements and blood samples were collected thirty and […] minutes after the capsules were consumed. During the two hour study, a PAT measurement and blood sample were taken two hours after the capsules were consumed.
Briefly, plasma was treated with acidified methanol [0.5% (v/v) of acetic acid in methanol; precooled to −20° C.] containing an appropriate recovery standard. The mixture was stored at −80 C for 12 hours to allow for cryo-assisted protein precipitation, and then centrifuged for 15 min at 16,500×g. The supernatant fraction was transferred and its volume reduced to less than 50 μL by removing the solvents under vacuum with a […] SpeedVac Concentrator (Thermo Electron Corporation, Milford, Mass.). […]

platelets [6] = conditions: 4 mg/kg/day; hypercholesterolemic rat model; cited from earlier work
[7] = platelets stimulated with 10 μL arachidonic acid, one hour after intake

Row | Compound | Change in FRHI compared to baseline (postmenopausal women; one and two hours post-consumption) | Significant improvement in RHI compared to baseline (postmenopausal women; one hour after intake) | Platelet aggregation (platelets [1]) | Slope, change from baseline (platelets [2]; lumi-aggregometry with 10 μL ADP, one-hour post consumption) | Slope, change from baseline (platelets [2]; platelets stimulated with 1 μL collagen, one hour after consumption) | Lag time, change from baseline (platelets [2]; platelets stimulated with 1 μL collagen, one-hour post consumption) | Area under the curve (AUC) of aggregation, change from baseline (platelets [2]; [7]) | Maximum aggregation, change from baseline (platelets [2]; [7]) | Platelet function, change from baseline (platelets [2]; stimulation with 5 μL collagen) | Platelet aggregation (platelets [3]) | Expression of eNOS [4] | Plasma resveratrol concentration ([5]; 30 minutes after intake of 90 mg) | Plasma resveratrol concentration ([5]; 60 minutes after intake of 90 mg) | ADP-induced platelet aggregation (platelets [6])
1 | Oc1ccc(/C=C/c2cc(O)cc(O)c2)cc1 [trans-res, Trans-resveratrol] | No differences; also recorded: no changes | not observed | significantly reduced | significant decrease | not | significant increase | no changes | no changes | no significant changes | significantly reduced | up-regulated | 2.04 (0.82, 2.54) | 2.65 (1.69, 3.44) | 
2 | Oc1ccc(C=Cc2cc(O)cc(O)c2)cc1 [Resveratrol, 3,5,4′-trihydroxystilbene] |  |  |  |  |  |  |  |  |  |  |  |  |  | inhibited

Reference: patent publication US10406129B2 (priority 2015, dated 2019)
